Experimental data from US9833497B2, “Human originated EGF domain proteins and use of the same” (CHENGDU SOURCEBIO LIMITED-LIABILITY COMPANY, priority 2013, dated 2017).

Key:
Format in all cases: cell-based
E. coli DH5α = test: Antibacterial activity: MIC and growth curve against E. coli DH5α in 96-well plate; conditions: minimal inhibitory concentration against E. coli DH5α; 96-well plate, 5×10^5 CFU/mL, 37° C., judged after 8 h
Procedure, shortened: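 Log-phase DH5α (OD600 about 0.5, 37° C, 185 rpm in LB) was pelleted, resuspended in fresh LB and seeded at 5×10^5 CFU/mL with recombinant protein at 50, 25 and 12.5 μg/mL (two-fold series), in triplicate. Plates were shaken at 175 rpm, 37° C, and OD600 was read every 30 min. MIC was the lowest concentration with no growth.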

Serratia marcescens = test: MIC against Gram-negative bacteria: Serratia marcescens
Procedure, shortened: (§1)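 MIC, the lowest recombinant protein concentration giving no bacterial growth, found by two-fold serial dilution of human EGF-domain proteins in triplicate. Inoculum 5×10^5 CFU/mL in LB from cultures at McFarland 0.5; plates incubated at 37° C, 175 rpm shaking.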

Proteus vulgaris = test: MIC against Gram-negative bacteria: Proteus vulgaris
Procedure, shortened: as §1

Citrobacter diversus = test: MIC against Gram-negative bacteria: Citrobacter diversus
Procedure, shortened: as §1

Proteus mirabilis = test: MIC against Gram-negative bacteria: Proteus mirabilis
Procedure, shortened: as §1

E. coli BL21 = test: MIC against Gram-negative bacteria: E. coli BL21; conditions: for MIC against E. coli BL21 / MIC (μg/mL) E. coli BL21 / MIC: E. coli BL21
Procedure, shortened: as §1

Enterobacter cloacae = test: MIC against Gram-negative bacteria: Enterobacter cloacae
Procedure, shortened: as §1

Pseudomonas aeruginosa = test: MIC against Gram-negative bacteria: Pseudomonas aeruginosa
Procedure, shortened: as §1

Aeromonas hydrophila = test: MIC against Gram-negative bacteria: Aeromonas hydrophila
Procedure, shortened: as §1

Moraxella catarrhalis = test: MIC against Gram-negative bacteria: Moraxella catarrhalis
Procedure, shortened: as §1

Klebsiella pneumonia = test: MIC against Gram-negative bacteria: Klebsiella pneumonia
Procedure, shortened: as §1

[1] = Serratia marcescens, 96-well plate, 5×10^5 CFU/mL, 37° C., 10 h
[2] = Proteus vulgaris, 96-well plate, 5×10^5 CFU/mL, 37° C., 10 h
[3] = Citrobacter diversus, 96-well plate, 5×10^5 CFU/mL, 37° C., 10 h
[4] = Proteus mirabilis, 96-well plate, 5×10^5 CFU/mL, 37° C., 10 h
[5] = 96-well plate, 5×10^5 CFU/mL, 37° C., 10 h
[6] = Enterobacter cloacae, 96-well plate, 5×10^5 CFU/mL, 37° C., 10 h
[7] = Pseudomonas aeruginosa, 96-well plate, 5×10^5 CFU/mL, 37° C., 10 h
[8] = Aeromonas hydrophila, 96-well plate, 5×10^5 CFU/mL, 37° C., 10 h
[9] = Moraxella catarrhalis, 96-well plate, 5×10^5 CFU/mL, 37° C., 10 h
[10] = Klebsiella pneumonia, 96-well plate, 5×10^5 CFU/mL, 37° C., 10 h
[11] = S. marcescens, 10 h cultivation at 37° C., 5×10^5 CFU/mL
[12] = P. vulgaris, 10 h cultivation at 37° C., 5×10^5 CFU/mL
[13] = C. diversus, 10 h cultivation at 37° C., 5×10^5 CFU/mL
[14] = P. mirabilis, 10 h cultivation at 37° C., 5×10^5 CFU/mL
[15] = 10 h cultivation at 37° C., 5×10^5 CFU/mL
[16] = E. cloacae, 10 h cultivation at 37° C., 5×10^5 CFU/mL
[17] = P. aeruginosa, 10 h cultivation at 37° C., 5×10^5 CFU/mL
[18] = A. hydrophila, 10 h cultivation at 37° C., 5×10^5 CFU/mL
[19] = M. catarrhalis, 10 h cultivation at 37° C., 5×10^5 CFU/mL
[20] = K. pneumonia, 10 h cultivation at 37° C., 5×10^5 CFU/mL
[21] = S. marcescens, 10 h cultivation at 37° C.
[22] = P. vulgaris, 10 h cultivation at 37° C.
[23] = C. diversus, 10 h cultivation at 37° C.
[24] = P. mirabilis, 10 h cultivation at 37° C.
[25] = E. cloacae, 10 h cultivation at 37° C.
[26] = P. aeruginosa, 10 h cultivation at 37° C.
[27] = A. hydrophila, 10 h cultivation at 37° C.
[28] = M. catarrhalis, 10 h cultivation at 37° C.
[29] = K. pneumonia, 10 h cultivation at 37° C.

PRT1330 (VVDFCKQDNGGCAKVARCSQKGTKVSCSCQKGYKGDGHSCT; listed as Homo sapiens)
50 µg/mL: MIC against S. marcescens (Serratia marcescens; [1]) | MIC against C. diversus (Citrobacter diversus; [3]) | MIC against E. cloacae (Enterobacter cloacae; [6])
25 µg/mL: MIC against P. vulgaris (Proteus vulgaris; [2]) | MIC against M. catarrhalis (Moraxella catarrhalis; [9])
12.5 µg/mL: MIC (E. coli DH5α) | MIC against P. mirabilis (Proteus mirabilis; [4]) | MIC against E. coli BL21 (E. coli BL21; [5]) | MIC against P. aeruginosa (Pseudomonas aeruginosa; [7]) | MIC against A. hydrophila (Aeromonas hydrophila; [8]) | MIC against K. pneumonia (Klebsiella pneumonia; [10])

PRT661 (QAEECGILNGCENGRCVRVREGYTCDCFEGFQLDAAHMACV; listed as Homo sapiens)
50 µg/mL: MIC (E. coli DH5α) | MIC P. mirabilis (Proteus mirabilis; [5]) | MIC E. cloacae (Enterobacter cloacae; [5])
12.5 µg/mL: MIC C. diversus (Citrobacter diversus; [5]) | MIC P. aeruginosa (Pseudomonas aeruginosa; [5])
25 µg/mL: MIC S. marcescens (Serratia marcescens; [5]) | MIC P. vulgaris (Proteus vulgaris; [5]) | MIC E. coli BL21 (E. coli BL21; [5]) | MIC A. hydrophila (Aeromonas hydrophila; [5]) | MIC M. catarrhalis (Moraxella catarrhalis; [5]) | MIC K. pneumonia (Klebsiella pneumonia; [5])

PRT68 (RSGRCANGVCKNGGTCVNLLIGGFHCVCPPGEYERPYCE; listed as Homo sapiens)
12.5 µg/mL: MIC (E. coli DH5α) | MIC (μg/mL) P. vulgaris (Proteus vulgaris; [2]) | MIC (μg/mL) C. diversus (Citrobacter diversus; [3]) | MIC (μg/mL) P. mirabilis (Proteus mirabilis; [4]) | MIC (μg/mL) E. cloacae (Enterobacter cloacae; [6]) | MIC (μg/mL) P. aeruginosa (Pseudomonas aeruginosa; [7]) | MIC (μg/mL) A. hydrophila (Aeromonas hydrophila; [8]) | MIC (μg/mL) M. catarrhalis (Moraxella catarrhalis; [9])
25 µg/mL: MIC (μg/mL) E. coli BL21 (E. coli BL21; [5]) | MIC (μg/mL) K. pneumonia (Klebsiella pneumonia; [10])
100 µg/mL: MIC (μg/mL) S. marcescens (Serratia marcescens; [1])

PRT758 (RVDHCAQQDHGCEQLCLNTEDSFVCQCSEGFLINEDLKTCS; listed as Homo sapiens)
25 µg/mL: MIC (μg/mL) C. diversus (Citrobacter diversus; [13]) | MIC (μg/mL) P. mirabilis (Proteus mirabilis; [14]) | MIC (μg/mL) E. coli BL21 (E. coli BL21; [15]) | MIC (μg/mL) E. cloacae (Enterobacter cloacae; [16])
12.5 µg/mL: MIC (E. coli DH5α) | MIC (μg/mL) S. marcescens (Serratia marcescens; [11]) | MIC (μg/mL) P. vulgaris (Proteus vulgaris; [12]) | MIC (μg/mL) M. catarrhalis (Moraxella catarrhalis; [19])
50 µg/mL: MIC (μg/mL) P. aeruginosa (Pseudomonas aeruginosa; [17]) | MIC (μg/mL) A. hydrophila (Aeromonas hydrophila; [18]) | MIC (μg/mL) K. pneumonia (Klebsiella pneumonia; [20])

PRT968 (LEDPCHSGPCAGRGVCQSSVVAGTARFSCRCPRGFRGPDCS; listed as Homo sapiens)
25 µg/mL: MIC (E. coli DH5α) | MIC (Proteus vulgaris; [22]) | MIC (Enterobacter cloacae; [25]) | MIC (Pseudomonas aeruginosa; [26]) | MIC (Aeromonas hydrophila; [27]) | MIC (Moraxella catarrhalis; [28])
12.5 µg/mL: MIC (Serratia marcescens; [21]) | MIC (Citrobacter diversus; [23]) | MIC (E. coli BL21; 10 h cultivation at 37° C.) | MIC (Klebsiella pneumonia; [29])
50 µg/mL: MIC (Proteus mirabilis; [24])

PRT142 (PCPGRYLRAGKCAELPNCLDDLGGFACECATGFELGKDGRSCV; listed as Homo sapiens)
25 µg/mL: MIC (μg/mL) P. vulgaris (Proteus vulgaris; [2]) | MIC (μg/mL) E. cloacae (Enterobacter cloacae; [6]) | MIC (μg/mL) P. aeruginosa (Pseudomonas aeruginosa; [7]) | MIC (μg/mL) A. hydrophila (Aeromonas hydrophila; [8]) | MIC (μg/mL) M. catarrhalis (Moraxella catarrhalis; [9])
12.5 µg/mL: MIC (E. coli DH5α) | MIC (μg/mL) S. marcescens (Serratia marcescens; [1]) | MIC (μg/mL) C. diversus (Citrobacter diversus; [3]) | MIC (μg/mL) P. mirabilis (Proteus mirabilis; [4]) | MIC (μg/mL) E. coli BL21 (E. coli BL21; [5]) | MIC (μg/mL) K. pneumonia (Klebsiella pneumonia; [10])

PRT805 (FGQNCSQDCPCHHGGQCDHVTGQCHCTAGYMGDRCQ; listed as Homo sapiens)
50 µg/mL: MIC (μg/mL) P. vulgaris (Proteus vulgaris; [12]) | MIC (μg/mL) E. coli BL21 (E. coli BL21; [15]) | MIC (μg/mL) M. catarrhalis (Moraxella catarrhalis; [19])
12.5 µg/mL: MIC (E. coli DH5α) | MIC (μg/mL) S. marcescens (Serratia marcescens; [11]) | MIC (μg/mL) C. diversus (Citrobacter diversus; [13]) | MIC (μg/mL) P. mirabilis (Proteus mirabilis; [14]) | MIC (μg/mL) E. cloacae (Enterobacter cloacae; [16]) | MIC (μg/mL) P. aeruginosa (Pseudomonas aeruginosa; [17]) | MIC (μg/mL) A. hydrophila (Aeromonas hydrophila; [18]) | MIC (μg/mL) K. pneumonia (Klebsiella pneumonia; [20])

PRT782 (AERCDCSHADGCHPTTGHCRCLPGWSGVHCD; listed as Homo sapiens)
12.5 µg/mL: MIC (μg/mL) P. vulgaris (Proteus vulgaris; [12]) | MIC (μg/mL) C. diversus (Citrobacter diversus; [13]) | MIC (μg/mL) E. cloacae (Enterobacter cloacae; [16]) | MIC (μg/mL) P. aeruginosa (Pseudomonas aeruginosa; [17]) | MIC (μg/mL) A. hydrophila (Aeromonas hydrophila; [18]) | MIC (μg/mL) M. catarrhalis (Moraxella catarrhalis; [19]) | MIC (μg/mL) K. pneumonia (Klebsiella pneumonia; [20])
25 µg/mL: MIC (μg/mL) P. mirabilis (Proteus mirabilis; [14]) | MIC (μg/mL) E. coli BL21 (E. coli BL21; [15])
50 µg/mL: MIC (E. coli DH5α) | MIC (μg/mL) S. marcescens (Serratia marcescens; [11])

PRT939 (DMNECLSEPCKNGGTCSDYVNSYTCKCQAGFDGVHCE; listed as Homo sapiens)
12.5 µg/mL: MIC (Proteus vulgaris; [22]) | MIC (Pseudomonas aeruginosa; [26]) | MIC (Aeromonas hydrophila; [27]) | MIC (Moraxella catarrhalis; [28]) | MIC (Klebsiella pneumonia; [29])
50 µg/mL: MIC (E. coli DH5α) | MIC (Serratia marcescens; [21]) | MIC (Citrobacter diversus; [23]) | MIC (Proteus mirabilis; [24]) | MIC (Enterobacter cloacae; [25])
25 µg/mL: MIC (E. coli BL21; 10 h cultivation at 37° C.)

PRT1422 (DVDDCILEPSPCPQRCVNTQGGFECHCYPNYDLVDGECV; listed as Homo sapiens)
12.5 µg/mL: MIC (E. coli DH5α) | MIC against S. marcescens (Serratia marcescens; Serratia marcescens, 5×10^5 CFU/mL, 10 h cultivation at 37° C.) | MIC against C. diversus (Citrobacter diversus; Citrobacter diversus, 5×10^5 CFU/mL, 10 h cultivation at 37° C.) | MIC against P. mirabilis (Proteus mirabilis; Proteus mirabilis, 5×10^5 CFU/mL, 10 h cultivation at 37° C.) | MIC against E. coli BL21 (E. coli BL21; 5×10^5 CFU/mL, 10 h cultivation at 37° C.) | MIC against E. cloacae (Enterobacter cloacae; Enterobacter cloacae, 5×10^5 CFU/mL, 10 h cultivation at 37° C.) | MIC against P. aeruginosa (Pseudomonas aeruginosa; Pseudomonas aeruginosa, 5×10^5 CFU/mL, 10 h cultivation at 37° C.)
50 µg/mL: MIC against P. vulgaris (Proteus vulgaris; Proteus vulgaris, 5×10^5 CFU/mL, 10 h cultivation at 37° C.) | MIC against A. hydrophila (Aeromonas hydrophila; Aeromonas hydrophila, 5×10^5 CFU/mL, 10 h cultivation at 37° C.) | MIC against M. catarrhalis (Moraxella catarrhalis; Moraxella catarrhalis, 5×10^5 CFU/mL, 10 h cultivation at 37° C.) | MIC against K. pneumonia (Klebsiella pneumonia; Klebsiella pneumonia, 5×10^5 CFU/mL, 10 h cultivation at 37° C.)
